According to ChEMBL document CHEMBL4130620, “Disconnecting the Estrogen Receptor Binding Properties and Antimicrobial Properties of Parabens through 3,5-Substitution” (ACS Med Chem Lett, 2018):
Values after ≈ are worked out from the molar mass of the structure shown.

Columns and labels:
[1] = Solubility of the compound at >512 ug/ml; assay type: physicochemical
MCF7 [2] = assay type: ADME, cell-based; conditions: human, mcf7, 24 h
[3] = molecular target: T1, Estrogen receptor alpha (ERalpha) (Homo sapiens, UniProt P03372); experiment: Displacement of Fluor.ES2 Green from human ERalpha at 100000 nM by TR-FRET competitive binding assay; conditions: probe Fluor.ES2 Green
T1 sequence (P03372 whole entry): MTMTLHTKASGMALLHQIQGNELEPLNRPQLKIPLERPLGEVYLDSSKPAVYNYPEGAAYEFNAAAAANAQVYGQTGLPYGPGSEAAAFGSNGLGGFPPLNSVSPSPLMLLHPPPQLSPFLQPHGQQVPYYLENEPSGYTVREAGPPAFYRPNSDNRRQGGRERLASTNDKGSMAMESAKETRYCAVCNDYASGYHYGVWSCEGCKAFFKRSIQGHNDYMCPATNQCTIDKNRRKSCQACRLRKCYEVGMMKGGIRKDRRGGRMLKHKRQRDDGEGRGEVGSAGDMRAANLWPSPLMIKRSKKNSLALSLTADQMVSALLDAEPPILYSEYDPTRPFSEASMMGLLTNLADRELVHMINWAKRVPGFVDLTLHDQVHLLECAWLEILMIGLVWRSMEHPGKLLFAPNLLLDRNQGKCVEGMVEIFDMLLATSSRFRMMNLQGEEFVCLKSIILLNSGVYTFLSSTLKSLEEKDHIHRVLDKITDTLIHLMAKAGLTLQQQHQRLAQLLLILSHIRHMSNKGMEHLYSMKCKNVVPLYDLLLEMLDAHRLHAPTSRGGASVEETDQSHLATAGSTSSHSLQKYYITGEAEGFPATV

[4] = molecular target: T1, Estrogen receptor alpha (ERalpha); experiment: Safety index, ratio of IC50 for test compound to IC50 for paraben for displacement of Fluor.ES2 Green from human ERalpha by TR-FRET competitive binding assay; conditions: probe Fluor.ES2 Green, read-out: Ratio IC50
Estrogen receptor = molecular target: T2, Estrogen receptor (Homo sapiens, UniProt P03372)
T2 sequence (P03372 whole entry): T1 sequence (P03372 whole entry)
Description: Displacement of Fluor.ES2 Green from human ERalpha by TR-FRET competitive binding assay

Staphylococcus aureus = experiment: microbe, parasite or virus in culture; conditions: 155554A, 16 h
Description: Antibacterial activity against Staphylococcus aureus 155554A incubated for 16 hrs by microdilution assay

MCF7 [5] = assay type: toxicity, cell-based; conditions: human
MCF7 [6] = assay type: toxicity, cell-based; conditions: human; remark: listed apart in the source

SMILES | solubility [1] | Activity (MCF7 [2]) | inhibition at 100 µM [3] | selectivity ratio [4] | IC50 (Estrogen receptor) | MIC (Staphylococcus aureus) | Activity (MCF7 [5]) | Activity (MCF7 [6])
CCCCOC(=O)c1cc(C(C)(C)C)c(O)c(C(C)(C)C)c1 | Insoluble | Non-Toxic | 20% | 20 to 40 | > 200 µM | 834 µM (≈ 256 µg/mL) |  | 
CCCCOC(=O)c1ccc(O)c(I)c1 |  | Non-Toxic |  |  | 7.98 µM | 199 µM (≈ 63.7 µg/mL) |  | 
CCCCOC(=O)c1cc(C)c(O)c(C)c1 | Insoluble | Non-Toxic |  | 20 to 40 | 32.5 µM | > 1040 µM |  | 
CCCCOC(=O)c1cc(Br)c(O)c(Br)c1 |  | Non-Toxic |  | 20 to 40 | 39.4 µM | 91 µM (≈ 32 µg/mL) | Non-Toxic | Non-Toxic
CCCCOC(=O)c1cc(Cl)c(O)c(Cl)c1 |  | Non-Toxic |  | 20 to 40 | 55.3 µM | 245 µM (≈ 64.5 µg/mL) |  | 
CCCCCCCCOC(=O)c1cc(I)c(O)c(I)c1 |  | Non-Toxic |  | 20 to 40 | 13.2 µM | 31.8 µM (≈ 16 µg/mL) | Non-Toxic | Non-Toxic
CCCCOC(=O)c1cc(O)c(O)c(O)c1 [BUTYL GALLATE] |  | Non-Toxic |  |  | 8.97 µM | 2060 µM (≈ 465 µg/mL) |  | 
CCCCOC(=O)c1c(F)c(F)c(O)c(F)c1F |  | Non-Toxic |  | 20 to 40 | 29.4 µM | 483 µM (≈ 129 µg/mL) |  | 
CCCCOC(=O)c1ccc(O)cc1 [BUTYLPARABEN] |  | Toxic |  |  |  | 1320 µM (≈ 256 µg/mL) |  | 
CCOC(=O)c1ccc(O)cc1 [ETHYLPARABEN] |  | Toxic |  |  |  |  |  | 
CCCCOC(=O)c1cc([N+](=O)[O-])c(O)c([N+](=O)[O-])c1 |  | Non-Toxic | 20% | 20 to 40 | > 200 µM | 1810 µM (≈ 514 µg/mL) |  | 
CCCCCCCCOC(=O)c1cc(O)c(O)c(O)c1 [OCTYL_GALLATE] |  | Non-Toxic |  | 20 to 40 | 8.74 µM | 210 µM (≈ 59.3 µg/mL) |  | 
CCCCOC(=O)c1ccc(O)c(Br)c1 |  | Non-Toxic |  |  | 8.21 µM | 236 µM (≈ 64.5 µg/mL) |  | 
CC1(C)S[C@@H]2[C@H](NC(=O)Cc3ccccc3)C(=O)N2[C@H]1C(=O)O [PENICILLIN G] |  |  |  |  |  | 0.749 µM (≈ 0.25 µg/mL) |  | 
CCCCOC(=O)c1cc(I)c(O)c(I)c1 |  | Non-Toxic |  | 20 to 40 | 34.6 µM | 36 µM (≈ 16.1 µg/mL) | Non-Toxic | Non-Toxic
CCCCCCCCOC(=O)c1cc([N+](=O)[O-])c(O)c([N+](=O)[O-])c1 |  | Non-Toxic |  | 20 to 40 | 60.4 µM | 47 µM (≈ 16 µg/mL) | Non-Toxic | Non-Toxic
CCCCCCCCOC(=O)c1cc(C)c(O)c(C)c1 |  | Non-Toxic |  | 20 to 40 | 16.2 µM | 213 µM (≈ 59.3 µg/mL) |  | 
CCCCOC(=O)c1cc(OC)c(O)c(OC)c1 | Insoluble | Non-Toxic | 20% | 20 to 40 | > 200 µM | 924 µM (≈ 235 µg/mL) |  | 
